Key:
cardiac troponin T = assay: In vivo cardiotoxicity (I): serum levels of cardiac troponin-T (cTnT); set-up: species or system Adult female Wistar rats; settings: weekly iv […] Dox, rats
Protocol: (§1) Group 6 received no treatment.
Prior to the commencement of the study, blood (500 μL) was collected from each rat via a tail vein bleed procedure. Blood was collected in 1.5 mL Capiject tube and allowed to clot for a minimum of 30 minutes. […] After pre-bleeds, each experimental animal was injected with respective drug combination or control treatment and 24 hours after administration the rats were tail-bled and processed as described above. Thereafter, animals were injected with drug combinations at weekly intervals for 12 weeks, and blood was collected 24 hours after treatment.

cardiac myocytes [1] = assay: In vivo cardiotoxicity (I): cardiac damage by electron microscopy; set-up: species or system Adult female Wistar rats; settings: chronic exposure, rats
Description: as §1
(§2) Immediately after animal sacrifice, a traverse section of the intraventricular septum was dissected from the heart and fixed in 2% glutaraldehyde, 2% paraformaldehyde and 4% glucose in phosphate buffer. Standard post-buffering, osmication and processing were followed. Specimens were examined with a Philip's electron microscope and the frequency and severity of cardiac damage in the myocardial cells were graded according to the method according to Billingham et al. (Can. Treat. Rep. 62: 865-872, 1978). In brief, blocks were selected that consisted predominantly of transected cardiac myocytes.

neutrophils = assay: Phase I clinical trial of doxorubicin + HA (HyDox) in advanced cancer: toxicity, neutrophil counts; format: in vivo, patients
Description: The eligibility criteria, for inclusion in this study, were as follows: Patients must have advanced or metastatic cancer, histologically or cytologically confirmed. Patients were not to have had previous chemotherapy or were to have had no more than one prior chemotherapy regime and were not to have had prior anthracyclines. Patients were to be aged between 18 and 75 years with ambulatory performance status and adequate bone marrow, liver and renal function.
The treatment plan provided that, in the first chemotherapy cycle, patients be randomized to receive Dox alone or Dox plus HA. The converse applied in the second cycle. In the subsequent four cycles, patients received Dox plus HA. This allowed each patient to act as his/her own control in the toxicity analysis in the first two cycles, reducing the possibility of inter-patient variability affecting result interpretation.
Injectable sodium chloride was obtained from Baxter Healthcare, Sydney, Australia, as supplied as a 500 ml infusion bag.
Therefore, the initial dose level was 30 mg/m^2, the next 45 mg/m^2 and the next 60 mg/m^2.

[2] = In vivo cytotoxicity (I): general toxicity (survival); settings: 24 mg/kg Dox, single iv bolus, 14 days
Protocol: Male F1 mice (C57×CBA; 11-13 weeks old), used for in vivo studies, were obtained from The Animal Central Division (Monash University, Victoria, Australia). The mice were distributed at random into each treatment group (6 per treatment group) and allowed to acclimatize for 2-3 weeks before commencing the study. […] Before a treatment group was started, blood (200 μL) from each experimental animal was collected by retroorbital sinus bleed and immediately transferred to tube containing EDTA, gently flick mixed and stored on ice until analysis. This was taken as day 0, after which the mice were given a single bolus intravenous injection via tail vein with corresponding control, drug, or HA/drug combinations. The mice were then sequentially bled on days 1, 4, 7, 10 and 14 by the aforementioned method. All blood samples were analyzed for white blood cell composition in an Adiva 120 Differential Coulter Counter (Bayer Diagnostics, USA). Throughout the duration of the study, mouse mass, food intake and general activity levels were recorded on a daily basis. On day 14, mice were sacrificed by cervical dislocation and the heart, lungs, liver, spleen, kidneys, stomach, intestines and testicles removed and immediately fixed in 10% v/v formalin in phosphate buffered saline.

[3] = In vivo cytotoxicity (I): metabolic stress (daily body weight); set-up: species or system Male F1 mice (C57×CBA)
Description: All treatment groups were monitored for weight loss on a daily basis. At the end of the study the data were expressed as percentage of original body mass and graphed in this maimer.

[4] = system: reduced glutathione (GSH); assay: In vivo cardiotoxicity (II): tissue reduced glutathione (GSH) level; set-up: species or system Adult female spontaneously hypertensive rats; settings: chronic exposure, vs control values
Protocol: For the GSH assay, 0.25 mL of 25% w/v metaphosphoric acid was added to the 1 mL of the original crude homogenate, mixed thoroughly and incubated on ice for 15 minutes. The protein precipitate was pelleted by centrifugation at 10,000 g for 10 minutes at 4° C. The clear supernatant was transferred to a clean tube and either stored at −70° C. for no longer than three days or GSH levels were directly determined. The level of GSH was determined using a fluorometric assay using 0-phthalaldehyde as described by Cohn & Lyle (Anal. Biochem. 14(3): 434-440, 1966).
(§3) Group 4 received no treatment.

[5] = system: peripheral blood neutrophils; assay: In vivo cytotoxicity (II): daily blood neutrophil and differential counts; set-up: species or system Male F1 mice (C57×CBA)
Protocol: For each treatment dosage a total of 6 groups (n=8 mice per group) were used. Data from each treatment group were established by staggering results of groups of 6 (counted individually), sampling each group every 4 days so that a daily assessment could be established. Each group was treated as described above, prior to the drug administration. -Throughout this study, blood was collected and analyzed for neutrophil content as outlined in previous examples.
Again, to normalize the data for comparison between treatments, neutropenia was expressed as a percentage of neutrophils on day 0 (before drug administration).

cardiac myocytes [6] = assay: In vivo cardiotoxicity (II): myocardial pathology by transmission electron microscopy (vacuolated myocytes); set-up: species or system Adult female spontaneously hypertensive rats; settings: cumulative Dox 13 mg/kg, 12 weeks
Description: as §2, §3
For analyses, tissue processing and assays of antioxidant enzymes and GSH, were carried out as described in Example 2. Analysis of cardiac damage by transmission electron microscopy was also carried out as described in Example 2.
To minimize anatomical variation across treatment groups, samples of the lateral border of the left ventricle were processed for EM analysis.

Glutathione peroxidase = settings: chronic exposure, vs control groups
Protocol: One week after the last injection, the rats were killed by decapitation and internal organs were fixed in 10% v/v formalin in phosphate buffered saline. Prior to tissue fixation, portions of the kidney, liver, and skeletal muscle and heart were quickly removed and placed in tubes on ice. The tissue was either used immediately or stored at −80° C. until assayed. Each sample was minced into small pieces, washed vigorously in two changes of ice cold 0.25 M sucrose containing 1 mM EDTA, then washed in 50 mM potassium phosphate buffer pH 7.8 containing 0.1 mM EDTA prior to recording the tissues ‘wet’ weight. The tissue was then resuspended in 2 mL of ice-phosphate-EDTA buffer and homogenized on ice for three 5-second bursts over 5 minutes using an Ultraturrax homogenizer. The fine suspension was made up to a final volume of 4 mL with the phosphate-EDTA buffer and used for the enzyme and GSH assays described below.
From the 4 mL tissue homogenate, 1 mL was transferred to a clean 1.5 mL Eppendorf and stored on ice. […]
SOD activity was determined measuring the Cytochrome c by the method according to McCord & Fridovich (J. Biol. Chem. 244(22): 6056-6063, 1969). GP activity was assessed by an indirect coupled assay (Paglia & Valentine, J. Lab. Clin. Med. 70(1): 158-169, 1967). […]
For control purposes, antioxidant loading from hepatic, renal and skeletal muscle extracts was also determined.

COc1cccc2c1C(=O)c1c(O)c3c(c(O)c1C2=O)C[C@@](O)(C(=O)CO)C[C@@H]3O[C@H]1C[C@H](N)[C@H](O)[C@H](C)O1 [Dox, doxorubicin]
Cumulative dose of Dox at which cardiotoxicity (serum troponin T release) begins (cardiac troponin T): 9 mg/kg | Appearance of myocytes in the heart (electron micrographs) (cardiac myocytes [1]): vacuolated myocytes | Neutrophils as % of Day 1 (neutrophils; Patient 1, Cycle 2, 30 mg/m2, day 1): 100% | Neutrophils as % of Day 1 (neutrophils; Patient 1, Cycle 2, 30 mg/m2, day 6): 100% | Neutrophils as % of Day 1 (neutrophils; Patient 1, Cycle 2, 30 mg/m2, day 8): 109% | Neutrophils as % of Day 1 (neutrophils; Patient 1, Cycle 2, 30 mg/m2, day 10): 109% | Neutrophils as % of Day 1 (neutrophils; Patient 1, Cycle 2, 30 mg/m2, day 13): 83% | Neutrophils as % of Day 1 (neutrophils; Patient 1, Cycle 2, 30 mg/m2, day 15): 57% | Neutrophils as % of Day 1 (neutrophils; Patient 1, Cycle 2, 30 mg/m2, day 20): 57% | Neutrophils as % of Day 1 (neutrophils; Patient 1, Cycle 2, 30 mg/m2, day 21): 74% | Neutrophils as % of Day 1 (neutrophils; Patient 1, Cycle 3, 30 mg/m2, day 1): 100% | Neutrophils as % of Day 1 (neutrophils; Patient 2, Cycle 1, 30 mg/m2, day 1): 100% | Neutrophils as % of Day 1 (neutrophils; Patient 2, Cycle 1, 30 mg/m2, day 4): 120% | Neutrophils as % of Day 1 (neutrophils; Patient 2, Cycle 1, 30 mg/m2, day 8): 132% | Neutrophils as % of Day 1 (neutrophils; Patient 2, Cycle 1, 30 mg/m2, day 10): 78% | Neutrophils as % of Day 1 (neutrophils; Patient 2, Cycle 1, 30 mg/m2, day 15): 54% | Neutrophils as % of Day 1 (neutrophils; Patient 2, Cycle 1, 30 mg/m2, day 17): 40% | Neutrophils as % of Day 1 (neutrophils; Patient 2, Cycle 1, 30 mg/m2, day 21): 86% | Neutrophils as % of Day 1 (neutrophils; Patient 2, Cycle 3, 30 mg/m2, day 1): 100% | Neutrophils as % of Day 1 (neutrophils; Patient 5, Cycle 1, 30 mg/m2, day 1): 100% | Neutrophils as % of Day 1 (neutrophils; Patient 5, Cycle 1, 30 mg/m2, day 4): 78% | Neutrophils as % of Day 1 (neutrophils; Patient 5, Cycle 1, 30 mg/m2, day 7): 70% | Neutrophils as % of Day 1 (neutrophils; Patient 5, Cycle 1, 30 mg/m2, day 9): 73% | Neutrophils as % of Day 1 (neutrophils; Patient 5, Cycle 1, 30 mg/m2, day 12): 49% | Neutrophils as % of Day 1 (neutrophils; Patient 5, Cycle 1, 30 mg/m2, day 14): 38% | Neutrophils as % of Day 1 (neutrophils; Patient 5, Cycle 1, 30 mg/m2, day 16): 32% | Neutrophils as % of Day 1 (neutrophils; Patient 5, Cycle 1, 30 mg/m2, day 19): 38% | Neutrophils as % of Day 1 (neutrophils; Patient 5, Cycle 1, 30 mg/m2, day 21): 59% | Neutrophils as % of Day 1 (neutrophils; Patient 5, Cycle 3, 30 mg/m2, day 1): 100% | Neutrophils as % of Day 1 (neutrophils; Patient 7, Cycle 1, 45 mg/m2, day 1): 100% | Neutrophils as % of Day 1 (neutrophils; Patient 7, Cycle 1, 45 mg/m2, day 4): 46% | Neutrophils as % of Day 1 (neutrophils; Patient 7, Cycle 1, 45 mg/m2, day 8): 56% | Neutrophils as % of Day 1 (neutrophils; Patient 7, Cycle 1, 45 mg/m2, day 10): 41% | Neutrophils as % of Day 1 (neutrophils; Patient 7, Cycle 1, 45 mg/m2, day 12): 35% | Neutrophils as % of Day 1 (neutrophils; Patient 7, Cycle 1, 45 mg/m2, day 15): 19% | Neutrophils as % of Day 1 (neutrophils; Patient 7, Cycle 1, 45 mg/m2, day 17): 14% | Neutrophils as % of Day 1 (neutrophils; Patient 7, Cycle 1, 45 mg/m2, day 19): 21% | Neutrophils as % of Day 1 (neutrophils; Patient 7, Cycle 3, 45 mg/m2, day 1): 100% | Neutrophils as % of Day 1 (neutrophils; Patient 8, Cycle 2, 45 mg/m2, day 1): 100% | Neutrophils as % of Day 1 (neutrophils; Patient 8, Cycle 2, 45 mg/m2, day 4): 84% | Neutrophils as % of Day 1 (neutrophils; Patient 8, Cycle 2, 45 mg/m2, day 8): 85% | Neutrophils as % of Day 1 (neutrophils; Patient 8, Cycle 2, 45 mg/m2, day 10): 39% | Neutrophils as % of Day 1 (neutrophils; Patient 8, Cycle 2, 45 mg/m2, day 12): 81% | Neutrophils as % of Day 1 (neutrophils; Patient 8, Cycle 2, 45 mg/m2, day 15): 62% | Neutrophils as % of Day 1 (neutrophils; Patient 10, Cycle 1, 60 mg/m2, day 1): 100% | Neutrophils as % of Day 1 (neutrophils; Patient 10, Cycle 1, 60 mg/m2, day 4): 93% | Neutrophils as % of Day 1 (neutrophils; Patient 10, Cycle 1, 60 mg/m2, day 6): 63% | Neutrophils as % of Day 1 (neutrophils; Patient 10, Cycle 1, 60 mg/m2, day 8): 33% | Neutrophils as % of Day 1 (neutrophils; Patient 10, Cycle 1, 60 mg/m2, day 10): 4% | Neutrophils as % of Day 1 (neutrophils; Patient 10, Cycle 1, 60 mg/m2, day 13): 3% | Neutrophils as % of Day 1 (neutrophils; Patient 10, Cycle 1, 60 mg/m2, day 17): 20% | Neutrophils as % of Day 1 (neutrophils; Patient 10, Cycle 1, 60 mg/m2, day 20): 47% | Neutrophils as % of Day 1 (neutrophils; Patient 12, Cycle 1, 60 mg/m2, day 1): 100% | Neutrophils as % of Day 1 (neutrophils; Patient 12, Cycle 1, 60 mg/m2, day 4): 124% | Neutrophils as % of Day 1 (neutrophils; Patient 12, Cycle 1, 60 mg/m2, day 7): 95% | Mice that survived until the end of the study [2]: 2 mice | Maximum weight loss, % of original body mass ([3]; 9 mg/kg Dox): ~−10% | Original body mass lost ([3]; 12 mg/kg Dox, by day 11): ~13% | Original weight lost ([3]; 24 mg/kg dosage group, by day 7): ~25% | Level of hepatic GSH [4]: remained unchanged | Duration of nadir neutropenia ([5]; 12 mg/kg): 2 days | Onset of nadir neutropenia ([5]; 12 mg/kg): 4 days | Duration of nadir neutropenia before recovery ([5]; 16 mg/kg): > 48 h | Myocyte vacuolation compared with the HyDox group (cardiac myocytes [6]): almost two-three-fold greater | Cardiac glutathione peroxidase levels (Glutathione peroxidase): equally increased

— patent US20090306012A1, “THERAPEUTIC PROTOCOLS” (priority 2001, published 2009)
